US9474736B2, “Composition and method for treating dry eye syndrome” (RAMSCOR, INC., priority 2008, dated 2016)
“Also recorded” adds a separate entry of the source.

Tests used:
[1] = parameters: species or system New Zealand White (NZW) rabbits; settings: both, New Zealand White, rabbit, in vivo
Protocol: FIG. 2 is a graph showing the levels of α-tocopheryl acetate in the tears of rabbits over the course of seven days after the rabbits were administered one drop of α-tocopheryl acetate (3.6 mg, 3.9 mg, 5.4 mg, or 6.0 mg) on day one.
Four adult New Zealand White (NZW) rabbits (two females, two males) each weighing 4.5 kilo to 5.0 kilo were used in this example. One drop of α-tocopheryl acetate, each weighing 3.6 mg, 3.9 mg, 5.4 mg and 6.0 mg, was instilled onto one eye of each animal. Tear samples were collected daily by filter paper, weighed, eluted in 300 μl MeOH and analyzed for tocopheryl acetate (EA) by LC/MS/MS. Detected tear levels of EA over a seven-day period ranged from 15 μg/ml to 36 μg/ml with a mean of 26 μg/ml (26,000 ng/ml). Detectable levels of EA in the cul-de-sac of the rabbit eye may last beyond seven days.

[2] = tested on: CDE symptoms; experiment: Alleviation of CDE symptoms in contact lens-wearing individual, subjective comfort; type: in vivo, human
Excerpt: FIG. 1 is a bar graph depicting the subjective comfort of an individual applying a drop of α-tocopheryl acetate into the eye(s) before bedtime preceding the days indicated. Subjective comfort is depicted on a scale of 1 to 10; with 1 being very irritated, and right eye feeling swollen; and 10 being very comfortable and tolerable compared to no drops.
A volunteer used one drop of α-tocopheryl acetate in one or more eyes at night, and reported the irritation or comfort on a subjective scale of 1-to-10, (maximum irritation “1”, maximum comfort “10”) as shown in FIG. 1. At days 1 to 5, the individual placed one drop in the right eye only.

[3] = tested on: dry eye syndrome; experiment: Topical application of α-tocopheryl acetate eyedrop in human volunteers with dry eye symptoms; settings: for duration of relief from dry eye symptoms: one drop about 50 μl
[4] = Water or saline stably absorbed in α-tocopheryl acetate (evaporative weight loss); type: physicochemical; settings: sealed vials, 30° C., after 12 hrs
Protocol: In an alternative study, the concentrations of water or saline that would remain stably absorbed in α-tocopheryl acetate (EA) were examined. Equal volumes of water or 0.9% saline were placed with EA in sealed vials at 30° C. Samples of the resultant EA plus absorbed aqueous were removed at several time points and the water contents were assayed by evaporative weight loss to constant weight over time at 30° C. open to the air. After 12 hrs exposure of EA to water or the saline solution in sealed vials at 30° C. the maximum amounts of aqueous solutions absorbed in EA were reached. The resultant values were: 0.3% water absorbed and 0.6% saline solution absorbed.

[5] = Water evaporation from tocopherol/water emulsions; type: physicochemical; settings: uncapped vials, ambient conditions, nine days
Protocol: FIG. 3 is a bar graph depicting the percent water evaporation from a tocopherol/water emulsions at nine days, shown as the percent water lost.
Mixtures of α-tocopheryl acetate (EA), d-α-tocopheryl polyethylene glycol 1000 succinate (TPGS) and water were prepared at the ratios shown in Table 1, weighed, and placed in 20 ml-sized glass vials. Vials #1 through #6 were each capped and sonicated for two minutes to yield stable emulsions. The vials #1 through #8 were then uncapped and left at ambient conditions for nine days. All the emulsions in vials #1 through #6 remained stable. All vials were weighed subsequently to measure weight (water) loss. […] Results are also depicted in FIG. 3.

SMILES	detected tear levels of EA, mean [1]	ability to wear contact lenses ([2]; days 30-38, eyedrops not applied every single night)	duration of comfort before re-applying eyedrops ([2]; volunteer, one drop at night)	irritation or blurred vision reported ([3]; one drop about 50 μl in eye, two human volunteers)	duration of relief from dry eye symptoms ([3]; no repeat applications, both volunteers)	duration of relief from dry eye symptoms ([3]; one subject)	maximum saline solution absorbed in EA ([4]; equal volumes 0.9% saline and EA) [%]	maximum water absorbed in EA ([4]; equal volumes water and EA) [%]	g wt loss [5]
CC(=O)Oc1c(C)c(C)c2c(c1C)CCC(C)(CCC[C@H](C)CCC[C@H](C)CCCC(C)C)O2 (stereo partly drawn) [α-tocopheryl acetate]	26,000 ng/ml	able to wear contact lenses (days 30-38) in relative comfort	up to five days	No irritation or blurred vision	several days; also recorded: at least one day	at least seven days	0.6	0.3	
CC(=O)Oc1c(C)c(C)c2c(c1C)CCC(C)(CCC[C@H](C)CCC[C@H](C)CCCC(C)C)O2 (stereo partly drawn) [vial 8, α-tocopheryl acetate]									lost no weight
